Assay results: patent US20180353445A1, “METHODS AND COMPOSITIONS RELATING TO PROTEASOME INHIBITOR RESISTANCE” (Whitehead Institute for Biomedical Research, priority 2017, published 2018)
Entries after “also recorded” stand apart in the source; their conditions may differ.

Key:
T47D cells = assay: Competition co-culture of TurboRFP PSMD2 shRNA and GFP control shRNA T47D cells, FACS/microscopy; format: cell-based, human; settings: 5 nM, 48 hours
Experimental: We created two cell lines—one line that expresses red fluorescent protein (turboRFP) and the doxycycline-inducible PSMD2-targeting shRNA and another line that expresses green fluorescent protein (GFP) and a doxycycline-inducible control shRNA (FIG. 6A). First, we induced shRNA expression with doxycycline for 48 hours. After recovery, we mixed shPSMD2-RFP and shControl-GFP cells at different ratios (either 1:1, 1:2, 1:5 or 1:10), adding the cells with reduced PSMD2 as the minority subpopulation. Twenty-four hours after plating, we treated these mixed populations of cells for 48 hours with increasing concentrations of bortezomib (5, 7.5 or 10 nM). We allowed the cells to recover in the absence of bortezomib and then we quantified the red and green cells by FACS analysis (FIG. 6A) and captured representative images by fluorescence microscopy (FIG. 6B),
The experiment described in Example 10 was repeated with minor differences using a panel of different proteasome inhibitors: MLN2238, MLN9708, and oprozomib T47D cells harboring a doxycycline inducible control shRNA (GFP) or a doxycycline-inducible PSMD2 shRNA (TurboRFP) were incubated with doxycycline for 3 days. Cells were collected, counted, and plated at a 1:10 ratio of TurboRFP-expressing PSMD2 shRNA cells/GFP expression control shRNA cells in the absence of Dox. Proteasome inhibitors were added at the specified concentrations and cells were maintained in culture. Cells were allowed to recover in the absence of the proteasome inhibitor and then analyzed by FACS (FIG. 8B, top) or visualized by microscopy (FIG. 8B, bottom). In the absence of proteasome inhibitors, the initial plating ratio of these cells (1:10) was maintained over the duration of the experiment (FIG. 8B). […]
Visualization and FACS analysis of GFP/RFP levels—cells were trypsinized in 100 μL Accumax® solution and further diluted into 100 μl PBSx1. The number of cells with red or areen fluorescent proteins was measured by MACSQuant® VYB according to manufactures protocol. […]

[1] = tested on: relapsed multiple myeloma; assay: Analysis of phase 2/3 bortezomib clinical trials in relapsed multiple myeloma stratified by 19S subunit expression; format: in vivo, human
Experimental: (All patients were treated with bortezomib.) (FIG. 15B) Reduced expression of 19S subunit expression is correlated with poor tumor suppression response to bortezomib in patients with relapsed myeloma enrolled in phase 2 and phase 3 clinical trials of bortezomib. Plotted is the time to relapse for patients that relapsed that were either treated with bortezomib, stratified by reduced expression of at least one subunit of the 19S proteasome complex or the dexamethasone treated group as a control.
We analyzed gene expression data from 135 patients with relapsed multiple myeloma who participated in Phase II or III trials of bortezomib (˜2007; Mulligan, G., Mitsiades, et al. (2007) Gene expression profiling and correlation with outcome in clinical trials of the proteasome inhibitor hortezomib. Blood 109, 3177-3188) and determined the sigma score for each cancer. […]
Methods details: re-treatment gene expression data from relapsed multiple myeloma patients undergoing clinical trials with bortezomib were downloaded from GSE9782 (34). […] Sigma scores were calculated from all probes. […] P-value was calculated using Wilcoxon test.

MCF7 and HEK293 cells = assay: Cell viability with glucose or galactose as the carbon source; format: cell-based, human; settings: 10 mM glucose or 10 mM galactose
Experimental: Cells were treated with increasing concentrations of elesclomol in the presence of either Glucose or Galactose as the carbon source (FIG. 40A). The presence of Galactose will induce a mitochondrial dependent metabolism (FIGS. 40B-40C, Gohil et al., Nature Biotechnology 28, 249-255 (2010)).
The sensitivity of cells to different chemical isoforms of elesclomol was also assessed. […] Removing even one substantially impairs the ability of the molecule to induce toxicity (FIG. 41B).
Cell culture methods—147D, Lo19S T47D, K562 and 293T-HS cells were cultured in RPMI-1640 medium supplemented with 10% fetal bovine serum; HEK293, HEK293T and MCF-7 cells were cultured in Dulbecco's modified Eagle's medium supplemented with 10% fetal bovine serum. For the glucose, galactose experiments media lacking glucose was supplemented with dialyzed serum and either 10 mM Glucose or 10 mM galactose.
Cell viability—where indicated relative cell number following different drug treatment was conducted by plating cells at 1000 cells/well in 384 well plates. Indicated concentrations of compounds were added 24 hour after plating at least in triplicate for each condition. Viability was measured 72 hours after drug addition using cell titer-glo (Promega) according to manufactures protocol. […]

FDX1 = molecular target: T1, FDX1 (Homo sapiens, UniProt P10109); assay: NMR titration of elesclomol against [U-15N]-FDX1 (2D 1H,15N TROSY-HSQC); format: binding
T1 construct: made in house
T1 sequence (P10109 62-184): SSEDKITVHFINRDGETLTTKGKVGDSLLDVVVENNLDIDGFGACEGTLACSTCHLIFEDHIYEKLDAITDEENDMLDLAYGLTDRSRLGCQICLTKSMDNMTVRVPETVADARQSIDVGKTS
Experimental: Most of these residues map to the α2, α3 helices and the β5 strand within the FDX1 structure (FIG. 53E).
NMR Spectroscopy—NMR spectra were collected at the National Magnetic Resonance Facility at Madison on a 750 MHz (^1H) Balker with a z-gradient cryogenic probe. The buffer used for NMR samples (HNT buffer) contained 20 mM HEPES at pH 7.6, 150 mM NaCl, and 2 mM TCEP. All sample temperatures were regulated at 25° C. NMRPipe software (Delaglio et al., 1995) was used to process the raw NMR data and NMRFAM-SPARKY (Lee et al., 2015) software was utilized to visualize and analyze the processed NMR data.
To study the interactions of FDX1 with elesclomol, 0.2 mM [U-^15N]-FDX1 in HNT buffer were placed in 5 mm Shigemi NMR tubes, and 2D ^1H,^15N TROSY-HSQC spectra were collected before and after titration of 5 equivalent molar ratio of elesclomol dissolved in HNT buffer.
Chemical shift perturbations (ΔδHN absolute value ppm) were calculated by
where Δ67 H and ΔδN are the chemical shift changes in the ^1H and ^15N dimensions, respectively.

Row | Structure (SMILES) | shift of surviving population toward PSMD2 shRNA cells (T47D cells) | time to progression of patients with reduced 19S subunit expression vs patients without ([1]; 34 patients, p-value=0.0086) | effectiveness in patients with reduced expression of 19S proteasome subunit(s) ([1]; vs dexamethasone control) | sensitivity of cells in galactose (mitochondrial metabolism, Hi-OXPHOS) versus glucose (glycolytic) (MCF7 and HEK293 cells) | binding to FDX1 by NMR (FDX1; 0.2 mM [U-15N]-FDX1, 5 equivalent molar ratio of elesclomol) | chemical shift perturbation (Δδ) of the most affected FDX residues (FDX1; I58-F59, D61, K66, D68, A69, D72-D76, L84, T104-R106)
1 | CC(C)C[C@H](NC(=O)[C@H](Cc1ccccc1)NC(=O)c1cnccn1)B(O)O [bortezomib] | substantially shifted the populations of surviving cells | shortened time to progression | no significant effectiveness over the dexamethasone control |  |  | 
2 | CN(NC(=O)CC(=O)NN(C)C(=S)c1ccccc1)C(=S)c1ccccc1 [elesclomol] |  |  |  | much more sensitive; also recorded: toxicity is enhanced | directly binds FDX1 | > 0.01 ppm
